Test results taken from US10995099B2, “Compounds and their uses as ACC inhibitors” (NANJING RUIJIE PHARMATECH CO., LTD., priority 2017, dated 2021).
Where two headings read alike, the source gives them in different places.

How the values were obtained:
[1] = molecular target: ACC1 (Homo sapiens (Human), UniProt Q13085); assay: In vitro ACC inhibition assay (ADP-Glo), ACC1; format: biochemical
Protocol: (§1) Compounds of the present invention were evaluated in an in vitro ACC inhibition assay as described by Harwood, et al, 2003, the entirety of which is incorporated herein by reference.
(§2) In Vitro Acetyl-CoA Carboxylase (ACC) Inhibition Assay
(§3) An exemplary procedure for the in vitro ACC inhibition assay, which can be used to determine the inhibitory action of compounds of the invention toward either ACC1 or ACC2, follows. The ADP-Glo™ Kinase Assay kit from Promega was used. The ADP-Glo™ Kinase Assay is a luminescent ADP detection assay to measure enzymatic activity by quantifying the amount of ADP produced during an enzyme reaction. The assay is performed in two steps; first, after the enzyme reaction, an equal volume of ADP-Glo™ Reagent is added to terminate the reaction and deplete the remaining ATP. Second, the Kinase Detection Reagent is added to simultaneously convert ADP to ATP and allow the newly synthesized ATP to be measured using a luciferase/luciferin reaction. Luminescence can be correlated to ADP concentrations by using an ATP-to-ADP conversion curve. The detailed procedure is as follows. 50 μL of the compound being tested (600 uM in DMSO) was added to a 384-well dilution plate. The compound was diluted 1:3 in succession in DMSO for each row for 11 wells. 0.5 μL ACC2 working solution was added to 384-well white Optiplate assay plate. 0.5 μL diluted compound solution in each column from step 2 to assay plate, each row containing 2 replicates. […] The plates were incubated at room temperature for 15 minutes. 5 μL substrate working solution was added to each well to initiate reaction. Final ACC2 reaction concentrations consist of: 5 nM ACC2, 20 μM ATP, 20 μM acetyl-CoA, 12 mM NaHCO3, 0.01% Brij35, 2 mM DTT, 5% DMSO, test compound concentrations: 30 μM, 10 μM, 3.33 μM, 1.11 μM, 0.37 μM, 0.123 μM, 0.0411 μM, 0.0137 μM, 0.00457 μM, 0.00152 μM, and 0.00051 μM. Plates were incubated at room temperature for 60 minutes. 10 μL ADP glo reagent was added. Plates were incubated at room temperature for 40 minutes. 20 μL kinase detection reagent was added. Plates were incubated at room temperature for 40 minutes, then read on a Perkin Elmer EnVision 2104 plate reader for luminescence as Relative Light Units (RLU).
(§4) Data for each concentration, as well as the positive and negative controls were averaged, and the standard deviation calculated. Percent inhibition was calculated by the formula: 100×(average negative control-compound)/(average negative control-average positive control). The IC50 for each compound was calculated by fitting the data with a non-linear regress ion equation: Y=Bottom+(Top−Bottom)/(1+10((Log IC50−X* HillSlope)), where X is the log of compound concentration and Y is percent inhibition.

[2] = molecular target: ACC2 (Homo sapiens (Human), UniProt O00763); assay: In vitro ACC inhibition assay (ADP-Glo), ACC2; format: biochemical
Sequence of ACC2 (Homo sapiens (Human), UniProt O00763) (O00763 whole entry, species assumed): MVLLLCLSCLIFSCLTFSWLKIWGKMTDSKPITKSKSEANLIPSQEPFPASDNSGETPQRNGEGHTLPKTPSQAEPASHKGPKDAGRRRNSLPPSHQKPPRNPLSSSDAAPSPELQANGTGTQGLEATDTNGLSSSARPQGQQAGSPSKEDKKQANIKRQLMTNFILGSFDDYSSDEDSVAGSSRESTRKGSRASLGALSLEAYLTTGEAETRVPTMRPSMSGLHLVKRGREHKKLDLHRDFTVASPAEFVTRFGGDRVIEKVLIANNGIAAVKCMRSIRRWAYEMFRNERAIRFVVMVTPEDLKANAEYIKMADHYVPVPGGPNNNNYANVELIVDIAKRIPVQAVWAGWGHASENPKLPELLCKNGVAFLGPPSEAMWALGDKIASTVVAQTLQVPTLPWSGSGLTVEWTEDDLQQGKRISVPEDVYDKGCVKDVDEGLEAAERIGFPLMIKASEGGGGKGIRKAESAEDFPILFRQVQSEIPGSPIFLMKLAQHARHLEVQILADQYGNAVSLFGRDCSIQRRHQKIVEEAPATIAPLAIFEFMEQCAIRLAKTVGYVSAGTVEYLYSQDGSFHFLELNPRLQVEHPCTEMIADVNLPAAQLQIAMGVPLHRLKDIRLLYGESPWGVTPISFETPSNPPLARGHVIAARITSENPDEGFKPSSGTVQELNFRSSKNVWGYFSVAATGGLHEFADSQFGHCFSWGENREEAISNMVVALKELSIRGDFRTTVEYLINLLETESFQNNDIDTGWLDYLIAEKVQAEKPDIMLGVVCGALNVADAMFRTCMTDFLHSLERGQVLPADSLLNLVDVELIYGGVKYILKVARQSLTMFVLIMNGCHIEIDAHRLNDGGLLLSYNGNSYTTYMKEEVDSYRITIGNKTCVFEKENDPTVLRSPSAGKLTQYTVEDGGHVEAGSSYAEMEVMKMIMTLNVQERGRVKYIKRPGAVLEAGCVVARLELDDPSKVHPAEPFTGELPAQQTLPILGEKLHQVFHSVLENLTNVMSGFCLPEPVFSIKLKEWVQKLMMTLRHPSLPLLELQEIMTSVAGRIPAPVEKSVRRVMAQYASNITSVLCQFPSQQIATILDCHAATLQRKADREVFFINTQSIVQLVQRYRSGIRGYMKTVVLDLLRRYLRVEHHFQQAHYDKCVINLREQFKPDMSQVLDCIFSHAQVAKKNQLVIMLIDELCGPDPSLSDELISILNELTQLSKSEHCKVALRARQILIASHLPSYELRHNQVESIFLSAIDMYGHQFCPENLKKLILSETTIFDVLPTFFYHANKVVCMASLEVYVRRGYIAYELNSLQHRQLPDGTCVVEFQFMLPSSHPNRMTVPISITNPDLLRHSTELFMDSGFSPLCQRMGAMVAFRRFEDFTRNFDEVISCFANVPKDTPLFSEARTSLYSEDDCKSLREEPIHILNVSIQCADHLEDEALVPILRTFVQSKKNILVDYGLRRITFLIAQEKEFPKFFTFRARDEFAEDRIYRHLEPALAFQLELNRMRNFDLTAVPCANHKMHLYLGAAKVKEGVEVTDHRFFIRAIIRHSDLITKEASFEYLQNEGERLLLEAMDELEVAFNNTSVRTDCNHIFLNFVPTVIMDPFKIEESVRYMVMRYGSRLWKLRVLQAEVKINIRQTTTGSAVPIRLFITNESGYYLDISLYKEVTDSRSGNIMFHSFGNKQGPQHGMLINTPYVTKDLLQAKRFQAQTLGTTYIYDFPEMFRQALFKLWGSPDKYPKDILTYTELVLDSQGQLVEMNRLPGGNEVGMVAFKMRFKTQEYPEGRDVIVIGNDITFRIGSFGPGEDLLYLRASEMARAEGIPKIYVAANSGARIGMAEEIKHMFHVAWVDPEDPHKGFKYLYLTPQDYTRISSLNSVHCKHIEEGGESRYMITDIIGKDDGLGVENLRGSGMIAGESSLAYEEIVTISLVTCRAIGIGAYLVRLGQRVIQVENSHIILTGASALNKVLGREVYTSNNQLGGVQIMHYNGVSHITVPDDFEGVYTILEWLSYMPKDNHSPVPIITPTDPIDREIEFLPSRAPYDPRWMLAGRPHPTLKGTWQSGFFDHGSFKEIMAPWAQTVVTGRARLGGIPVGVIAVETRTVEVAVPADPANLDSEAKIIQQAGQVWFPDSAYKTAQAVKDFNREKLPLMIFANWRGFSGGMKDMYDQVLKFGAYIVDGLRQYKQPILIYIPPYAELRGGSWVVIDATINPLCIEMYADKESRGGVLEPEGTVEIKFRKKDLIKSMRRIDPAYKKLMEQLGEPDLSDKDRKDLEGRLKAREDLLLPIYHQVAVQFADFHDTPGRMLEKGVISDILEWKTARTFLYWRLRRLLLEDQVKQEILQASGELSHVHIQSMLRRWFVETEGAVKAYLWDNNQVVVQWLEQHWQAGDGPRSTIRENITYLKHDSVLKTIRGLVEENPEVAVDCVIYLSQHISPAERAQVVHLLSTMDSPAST
Protocol: as §1, §2, §3, §4

[3] = test system: HepG2; assay: EC50 in HepG2; format: cell-based
[4] = test system: MDA-MB-468; assay: EC50 in MDA-MB-468; format: cell-based
[5] = test system: A549; assay: EC50 in A549; format: cell-based
[6] = test system: ACC1; details: ACC1 isolated from rat, mouse, monkey and human; cited from earlier work
[7] = test system: ACC2; details: ACC2 isolated from rat, mouse, monkey and human; cited from earlier work
[8] = 5 nM ACC2, 20 μM ATP, 20 μM acetyl-CoA, read-out: IC50 (μM) ACC2
[9] = ND630 versus RJ compounds, isoform not given, read-out: IC50 (μM) ND630/RJ-cmps(%)
[10] = HepG2, read-out: EC50 (μM) HepG2
[11] = ND630 versus RJ compounds, read-out: EC50 (μM) ND630/RJ-cmps(%)
[12] = MDA-MB-468, read-out: EC50 (μM) MDA-MB-468

Row | Compound | IC50 [1] | IC50 [2, 8] | IC50 [2, 9] | EC50 [3, 10] | EC50 [3, 11] | EC50 [4, 12] | EC50 ([5]; A549, read-out: EC50 (μM) A549) | IC50 [6] | IC50 [7] | EC50 ([4]; MDA-MB-468, reference, read-out: EC50 MDA-MB-468 (cisplatin)) | EC50 ([5]; A549, reference, read-out: EC50 A549 (cisplatin))
1 | COc1ccccc1[C@H](Cn1c(=O)n(C2(C(=O)O)CC2)c(=O)c2c(C)c(-c3ncco3)sc21)OC1CCOCC1 [Example 33] | < 0.001 µM | < 0.01 µM | 0.003 to 0.005 µM | 0.01 to 0.1 µM | > 1 µM | 1 to 10 µM | < 0.5 µM | – | – | – | –
2 | COc1ccccc1[C@H](Cn1c(=O)n(C2(C(=O)O)CCC2)c(=O)c2c(C)c(Br)sc21)OC1CCOCC1 [Example 31] | 0.001 to 0.01 µM | < 0.01 µM | 0.003 to 0.005 µM | 0.01 to 0.1 µM | > 1 µM | > 10 µM | < 0.5 µM | – | – | – | –
3 | COc1ccccc1C(Cn1c(=O)n(C2(C(N)=O)CC2)c(=O)c2c(C)c(-c3ncco3)sc21)OC1CCOCC1 (stereo not drawn) [Example 46] | 0.001 to 0.01 µM | 0.01 to 0.1 µM | 0.005 to 0.01 µM | 0.01 to 0.1 µM | > 1 µM | – | – | – | – | – | –
4 | COc1ccccc1C(Cn1c(=O)n(C2(C(N)=O)CCCC2)c(=O)c2c(C)c(-c3ncco3)sc21)OC1CCOCC1 (stereo not drawn) [Example 43] | 0.001 to 0.01 µM | < 0.01 µM | 0.005 to 0.01 µM | < 0.01 µM | > 1 µM | – | – | – | – | – | –
5 | CNC(=O)CC1(n2c(=O)c3c(C)c(Br)sc3n(C[C@H](OC3CCOCC3)c3ccccc3OC)c2=O)CC1 [Example 62] | 0.001 to 0.01 µM | 0.01 to 0.1 µM | – | 0.01 to 0.1 µM | > 1 µM | – | – | – | – | – | –
6 | COc1ccccc1[C@H](Cn1c(=O)n(C2(CC(N)=O)CC2)c(=O)c2c(C)c(-c3ncco3)sc21)OC1CCOCC1 [Example 64] | 0.001 to 0.01 µM | < 0.01 µM | – | < 0.01 µM | > 1 µM | – | – | – | – | – | –
7 | O=C(c1c2ccccc2cc2ccccc12)N1CCC(N2CCC[C@@H](C(=O)N3CCOCC3)C2)CC1 [CP-640186] | – | – | – | – | – | – | – | 60 nM | 60 nM | – | –
8 | COc1ccccc1[C@H](Cn1c(=O)n(C(C)(C)C(N)=O)c(=O)c2c(C)c(-c3ncco3)sc21)OC1CCOCC1 [Example 42] | – | – | – | < 0.01 µM | > 1 µM | > 10 µM | < 0.5 µM | – | – | – | –
9 | COc1ccccc1C(Cn1c(=O)n(C2(C(=O)O)CCCC2)c(=O)c2c(C)c(-c3ncco3)sc21)OC1CCOCC1 (stereo not drawn) [Example 36] | 0.001 to 0.01 µM | < 0.01 µM | 0.003 to 0.005 µM | 0.01 to 0.1 µM | > 1 µM | > 10 µM | 0.5 to 1 µM | – | – | – | –
10 | COc1ccccc1[C@H](Cn1c(=O)n(C2CCC2C(=O)O)c(=O)c2c(C)c(-c3ncco3)sc21)OC1CCOCC1 (stereo partly drawn) [Example 69] | < 0.001 µM | < 0.01 µM | > 0.01 µM | < 0.01 µM | > 1 µM | – | – | – | – | – | –
11 | COc1ccccc1[C@H](Cn1c(=O)n(C2(C(=O)O)CC2)c(=O)c2c(C)c(Br)sc21)OC1CCOCC1 [Example 29] | 0.001 to 0.01 µM | < 0.01 µM | 0.003 to 0.005 µM | 0.01 to 0.1 µM | 0.1 to 1 µM | > 10 µM | 0.5 to 1 µM | – | – | – | –
12 | COc1ccccc1[C@H](Cn1c(=O)n(C2(C(N)=O)CC2)c(=O)c2c(C)c(Br)sc21)OC1CCOCC1 [Example 58] | 0.01 to 0.05 µM | 0.01 to 0.1 µM | > 0.01 µM | > 1 µM | – | – | – | – | – | – | –
13 | COc1ccccc1C(Cn1c(=O)n(C2(C(=O)O)CCC2)c(=O)c2c(C)c(-c3ncco3)sc21)OC1CCOCC1 (stereo not drawn) [Example 37] | < 0.001 µM | < 0.01 µM | 0.005 to 0.01 µM | 0.01 to 0.1 µM | > 1 µM | > 10 µM | < 0.5 µM | – | – | – | –
14 | COc1ccccc1[C@H](Cn1c(=O)n(C(C)(C)C(=O)O)c(=O)c2c(C)c(-c3ncco3)sc21)OC1CCOCC1 [Example 38] | < 0.001 µM | < 0.01 µM | 0.005 to 0.01 µM | 0.01 to 0.1 µM | > 1 µM | > 10 µM | < 0.5 µM | – | – | – | –
15 | CNC(=O)CC1(n2c(=O)c3c(C)c(-c4ncco4)sc3n(C[C@H](OC3CCOCC3)c3ccccc3OC)c2=O)CC1 [Example 63] | 0.001 to 0.01 µM | 0.01 to 0.1 µM | – | 0.01 to 0.1 µM | > 1 µM | – | – | – | – | – | –
16 | N.N.[Cl][Pt][Cl] [cisplatin, reference compound] | – | – | – | – | – | – | – | – | – | 0.68 µM | 1.28 µM
17 | COc1ccccc1C(Cn1c(=O)n(C2(C(N)=O)CCC2)c(=O)c2c(C)c(-c3ncco3)sc21)OC1CCOCC1 (stereo not drawn) [Example 54] | 0.001 to 0.01 µM | 0.01 to 0.1 µM | 0.005 to 0.01 µM | < 0.01 µM | > 1 µM | – | – | – | – | – | –
18 | CNC(=O)C1(n2c(=O)c3c(C)c(-c4ncco4)sc3n(CC(OC3CCOCC3)c3ccccc3OC)c2=O)CCC1 (stereo not drawn) [Example 53] | 0.001 to 0.01 µM | < 0.01 µM | 0.003 to 0.005 µM | 0.01 to 0.1 µM | > 1 µM | – | – | – | – | – | –
19 | COc1ccccc1[C@H](Cn1c(=O)n(C2(C(=O)O)CC2)c(=O)c2c(C)c(Cl)sc21)OC1CCOCC1 [Example 40] | – | 0.01 to 0.1 µM | 0.005 to 0.01 µM | 0.1 to 1 µM | > 1 µM | > 10 µM | > 1 µM | – | – | – | –
20 | COc1ccccc1[C@H](Cn1c(=O)n(C2(C(=O)O)CCCC2)c(=O)c2c(C)c(-n3nccn3)sc21)OC1CCOCC1 [Example 55] | < 0.001 µM | < 0.01 µM | 0.005 to 0.01 µM | < 0.01 µM | > 1 µM | – | – | – | – | – | –
21 | COc1ccccc1[C@H](Cn1c(=O)n(C2(C(=O)NS(C)(=O)=O)CC2)c(=O)c2c(C)c(-c3ncco3)sc21)OC1CCOCC1 [Example 41] | – | < 0.01 µM | 0.005 to 0.01 µM | > 1 µM | > 1 µM | 1 to 10 µM | < 0.5 µM | – | – | – | –
22 | CNC(=O)C1(n2c(=O)c3c(C)c(Br)sc3n(CC(OC3CCOCC3)c3ccccc3OC)c2=O)CCC1 (stereo not drawn) [Example 52] | 0.01 to 0.05 µM | 0.01 to 0.1 µM | 0.003 to 0.005 µM | 0.01 to 0.1 µM | > 1 µM | – | – | – | – | – | –
23 | COc1ccccc1[C@H](Cn1c(=O)n(C2(CC(=O)O)CC2)c(=O)c2c(C)c(-c3ncco3)sc21)OC1CCOCC1 [Example 61] | 0.01 to 0.05 µM | < 0.01 µM | – | 0.1 to 1 µM | > 1 µM | – | – | – | – | – | –
24 | COc1ccccc1[C@H](Cn1c(=O)n(C2(C(=O)O)CCCC2)c(=O)c2c(C)c(Br)sc21)OC1CCOCC1 [Example 30] | – | < 0.01 µM | 0.003 to 0.005 µM | 0.1 to 1 µM | > 1 µM | > 10 µM | > 1 µM | – | – | – | –
